Data set [1] in a line: Bidirectional transport across MDCK II cell monolayers. The data set is classed as in vitro ADME, canine. Particulars: dog; for efflux ratio at 120 min, 20 μM: read-out: ER. How it is done: MDCK II and MDCK-MDR1 cells were seeded into 12-well Transwell polycarbonate membrane inserts (12 mm diameter inserts, 0.4 μm pore size, Corning Costar) at a density of 6 × 10^5 cells/well. Cells were cultured at 37°C under 5% CO2 in DMEM with 10% FBS, and the culture medium was refreshed every other day. Experiments were conducted when the tight junctional cell monolayer formed. First, the cells were washed three times using 37°C preheated HBSS buffer (pH = 7.4) and preincubated in a shaking incubator for 30 min at 37°C. Then the transport studies were initiated after the blank HBSS buffer and dosing solution (HBSS buffer containing cinobufotalin at a final concentration of 20 μM) were added to the receiver compartment and donor compartment, respectively. Verapamil, if used, was added to both compartment during the incubated period. The volumes of the apical side (AP) and basolateral side (BL) were 0.5 and 1.5 mL, respectively. Samples (100 μL) were taken from the receiver compartment every 30 min during the incubation period of 120 min, and then replaced with the same volume of […]. At the end of the incubated period, aliquots of 100 μL were withdrawn from the donor compartment to calculated mass balance. All samples were mixed with 50 μL acetonitrile and centrifuged at 4°C (12,000 g, 10 min. The supernatant was subjected to UPLC-QTOF/MS for analyses.
The apparent permeability (cm/s) from apical-to-basal (Papp,AP-BL) and basal-to-apical (Papp,BL-AP) were calculated according to the following Equation (4), where dQ/dt is the rate of drug permeation (nmol/s), A is the area of polycarbonate membrane (A = 1.12 cm^2), and C0 is the initial concentration of cinobufotalin in the donor compartment.
The efflux ratio (ER) and net flux ratio were calculated according to Equations (5) and (6) as described in our previous research ([Sun et al., 2017]).
(5) ER=Papp, BL−AP/Papp, AP−BL

Data set [2] deals with Huh-7 cells. The experiment in a line: Wound healing assay, Huh-7 cells. The data set is classed as cell-based. Particulars: 40, 60 and 80 nM, 24 h. How it is done:
Hepatocellular cancer cells (HepG2 and Huh-7) were purchased from the cell bank of the Chinese Academy of Science (Shanghai, China). These cells were cultured in Dulbecco’s modified Eagle’s medium (DMEM) containing 10% fetal bovine serum (FBS), penicillin (100 units/mL) and streptomycin (100 units/mL) in a humidified atmosphere with 5% CO2 at 37 °C.
Wound healing assay was used to investigate the effect of cinobufotalin on the migration of HepG2 and Huh-7 cells. Cells were seeded into 6-well plates at the density of 4 × 10^5 cells/well and maintained until reaching monolayer confluence. The cells were scratched using 20-μL pipette tips and rinsed with PBS buffer for three times. And then the cells were cultured in serum-free medium containing different concentrations of cinobufotalin (40, 60, 80 nM). After treatment with cinobufotalin for different lengths of time (0 and 24 h), the width of wound was measured and the images of cells were acquired using inverted microscope (Leica, Wetzlar, German). The rate of wound healing = [(the wound width of 0 h - 24 h)/0 h wound width] × 100%. All experiments were performed in triplicate.

The target of data set [3] is T1, P-glycoprotein (P-gp) (Homo sapiens, UniProt P08183).
T1 construct: expressed in transfected cells; host or cells: MDCK II (Madin Darby canine kidney) cells stably transfected with the MDR1 gene
T1 sequence (P08183 whole entry): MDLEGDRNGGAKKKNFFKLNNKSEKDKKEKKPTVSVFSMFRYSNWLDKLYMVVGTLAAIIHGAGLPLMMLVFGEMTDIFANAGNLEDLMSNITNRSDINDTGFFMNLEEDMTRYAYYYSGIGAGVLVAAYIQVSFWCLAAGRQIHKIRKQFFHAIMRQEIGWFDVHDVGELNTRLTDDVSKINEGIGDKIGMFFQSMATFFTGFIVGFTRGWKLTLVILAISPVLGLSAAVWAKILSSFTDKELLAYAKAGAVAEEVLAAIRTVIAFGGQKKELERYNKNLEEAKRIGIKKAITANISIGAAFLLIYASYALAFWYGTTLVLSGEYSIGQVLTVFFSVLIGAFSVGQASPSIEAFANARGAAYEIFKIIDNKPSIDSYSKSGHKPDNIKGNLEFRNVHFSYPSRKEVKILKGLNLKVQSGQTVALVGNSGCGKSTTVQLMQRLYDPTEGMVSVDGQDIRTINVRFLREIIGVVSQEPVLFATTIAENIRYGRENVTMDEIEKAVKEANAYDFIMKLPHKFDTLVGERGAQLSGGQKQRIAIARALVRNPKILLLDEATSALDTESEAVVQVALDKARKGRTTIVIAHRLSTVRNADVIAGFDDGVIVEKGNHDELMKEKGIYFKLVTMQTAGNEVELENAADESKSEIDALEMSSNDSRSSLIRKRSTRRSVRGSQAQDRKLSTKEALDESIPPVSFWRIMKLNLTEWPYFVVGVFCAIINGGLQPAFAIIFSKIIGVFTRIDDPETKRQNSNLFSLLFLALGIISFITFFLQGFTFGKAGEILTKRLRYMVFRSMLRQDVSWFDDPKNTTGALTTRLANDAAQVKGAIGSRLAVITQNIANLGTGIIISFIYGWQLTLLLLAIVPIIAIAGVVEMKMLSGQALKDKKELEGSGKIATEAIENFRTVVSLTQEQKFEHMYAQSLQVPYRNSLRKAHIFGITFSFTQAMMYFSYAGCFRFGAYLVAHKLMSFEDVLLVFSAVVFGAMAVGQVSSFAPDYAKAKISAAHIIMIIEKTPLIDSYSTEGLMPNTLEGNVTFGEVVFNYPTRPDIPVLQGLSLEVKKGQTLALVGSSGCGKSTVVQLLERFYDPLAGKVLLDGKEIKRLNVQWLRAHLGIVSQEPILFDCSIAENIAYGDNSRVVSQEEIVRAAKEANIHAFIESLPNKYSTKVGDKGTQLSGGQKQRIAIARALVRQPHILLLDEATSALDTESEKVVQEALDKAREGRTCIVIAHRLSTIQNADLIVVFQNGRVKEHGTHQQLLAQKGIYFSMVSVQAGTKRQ
The data set is described as follows: Cellular uptake (intracellular accumulation) in MDCK-MDR1 cells. As to conditions: 2 h; for increase of intracellular accumulation of cinobufotalin by verapamil: MDCK-MDR1 cells, verapamil 100 μM. It counts as in vitro ADME. How it is done:
Madin Darby canine kidney (MDCK II) cells stably transfected with multidrug resistance 1 gene (MDCK-MDR1 cells) were conducted and used in cinobufotalin uptake studies. Wild type MDCK II or MDCK-MDR1 cells were seeded into six-well plates at the destiny of 2 × 10^5 cells/well and maintained at 37°C under 5% CO2 in DMEM with 10% FBS. The well-known P-gp inhibitor, verapamil (100 μM), was used as the positive control to evaluate the effect of P-gp on cinobufotalin uptake ([Bicker et al., 2017]).
The uptake experiment was performed when the cells reached 100% confluency. First, cells were washed three times using 37°C Hanks’ balanced salt solution (HBSS) buffer (pH = 7.2). Then, 2 mL HBSS (37°C, pH = 7.2) buffer containing cinobufotalin (5 and 20 μM) were added and incubated with cells in the absence or presence of potential P-gp inhibitors, verapamil (100 μM). After incubation for 2 h, the incubation medium was removed, and cells were washed three times using ice-cold HBSS buffer. Then 400 μL of ice-cold MeOH:H2O (1:1, v/v) were added into each well, the cells were collected and sonicated for 15 min in ice-cold water. The mixture was centrifuged at 4°C (12,000 g, 10 min), and the supernatant was subjected to UPLC-QTOF/MS for analyses.

Data set [4] is described as follows: Water solubility. The data set is classed as physicochemical. Particulars: pH 7.0. An excerpt: Traditional Chinese Medicine (TMC) is widely used due to high efficiency and low toxicity in the treatment of various diseases. Toad venom (also known as Chan’su) is derived from the dried skin secretions of giant toads (Bufo gargarizans Cantor or Bufo melanostictus Suhneider) and is currently used in clinical practice, such as Cinobufacini injection, to treat HCC ([Kamano et al., 2002]; [Tang et al., 2008]; [Hu et al., 2011]; [Zhang et al., 2018]). Cinobufotalin (Figure 1A), a bufadienolide in chemical structure, is one of the major anti-tumor components of Cinobufacini injection ([Tao et al., 2010]; [Zhang et al., 2018]). […] This implied that cinobufotalin has shown excellent druggability.

Setting [5] is: pH 7.4, with verapamil (concentration not stated), in both compartments, cinobufotalin 20 μM, with verapamil.

The structures appear in SMILES notation. ≈ marks a conversion by molar mass, not a printed value. Read-outs that look alike come from different tables or passages of the source.

For `CC(=O)O[C@H]1[C@H]2O[C@]23[C@@H]2CC[C@]4(O)C[C@@H](O)CC[C@]4(C)[C@H]2CC[C@]3(C)[C@H]1c1ccc(=O)oc1` [Cinobufotalin], in data set [1] (pH 7.4, cinobufotalin 20 μM), the Papp A→B at 120 min, 20 μM came to 33.8 ± 1.1 ×10⁻⁶ cm/s; the Papp B→A at 120 min, 20 μM is 35.9 ± 1.3 ×10⁻⁶ cm/s; the efflux ratio at 120 min, 20 μM is 1.1. Also, in data set [1] (setting [5]), the Papp A→B at 120 min, 20 μM was 23.4 ± 2.2 ×10⁻⁶ cm/s; the apparent permeability from basolateral to apical (Papp B→A) at 120 min, 20 μM worked out at 24.8 ± 2.7 ×10⁻⁶ cm/s; the efflux ratio at 120 min, 20 μM was 1.1. Besides, in data set [2], the “migration of Huh-7 cells (wound healing)” value is on record as “significantly attenuated”. For the same compound, the “intracellular amount of cinobufotalin in MDCK II cells compared with MDCK-MDR1 cells” value in data set [3] (5 and 20 μM) is “obviously higher”. Moreover, the “increase of intracellular accumulation of cinobufotalin by verapamil” value in data set [3] (cinobufotalin 5 μM) turned out to be 4.0 fold. Further, the “increase of intracellular accumulation of cinobufotalin by verapamil” value in data set [3] (cinobufotalin 20 μM) was 3.5 fold. This compound returned a solubility in data set [4] of 117 µg/mL (≈ 256 µM).

Usually Papp A→B stands for the apparent permeability from the apical to the basolateral side of a cell layer. A low value points to poor permeation. What is called Papp B→A is the apparent permeability from the basolateral to the apical side of a cell layer. Broadly, the solubility is how much of the substance goes into solution per volume.

These data come from PMC6533572, “Elucidation of the Differences in Cinobufotalin’s Pharmacokinetics Between Normal and Diethylnitrosamine-Injured Rats: The Role of P-Glycoprotein” (Frontiers in Pharmacology, 2019).
